Values of other authors in patent publication US8853187B2, “Composition comprising bisphosphonates for prevention and/or treatment of metabolic diseases of bones, process for preparing such composition and use thereof” (Gador S.A., priority 2001, dated 2014).

Settings: ranking within the group of bisphosphonates, in words

In the case of `CN(C)CCC(O)(P(=O)(O)O)P(=O)(O)O` [Olpadronate], the “solubility relative to other bisphosphonates” value is given as “most soluble”.
